In patent US20250353820A1, “ANTIVIRAL PYRAZOLOPYRIDINONE COMPOUNDS” (Novartis AG, priority 2019, published 2025):
pEC50, pIC50: −log10 of the molar value. Where two headings read alike, the source gives them in different places.

Key:
[1] = molecular target: human CMV DNA polymerase UL54 (Human cytomegalovirus (strain AD169) (HHV-5) (Human herpesvirus 5), UniProt P08546); experiment: biochemical
[2] = molecular target: human HSV DNA polymerase UL30 (Human herpesvirus 1 (strain 17) (HHV-1) (Human herpes simplex virus 1), UniProt P04293); experiment: biochemical; conditions: 20 minutes at room temperature
[3] = system: Luciferase-encoding HCMV (AD169 strain); experiment: microbe, parasite or virus in culture; assay type: cell-based
[4] = HSV-polymerase Biochemical IC50, 625 pM HSV polymerase
[5] = 100 pM CMV polymerase, 60 minutes at room temperature, read-out: CMV-polymerase Biochemical IC50
[6] = 625 pM HSV polymerase, read-out: HSV-polymerase Biochemical IC50
[7] = Human betaherpesvirus 5, AD169, 72 h, read-out: CMV-Luc Cellular EC50, NN-NHDF cells, MOI of 1, 72 hrs
[8] = read-out: CMV-Luc Cellular EC50, NN-NHDF cells, MOI of 1, 72 hrs
[9] = NN-NHDF cells, MOI of 1, 72 hrs, read-out: CMV-Luc Cellular EC50

SMILES | pIC50 [1, 5] | pIC50 [2, 6] | pEC50 [3, 8] | also measured
CC(N)COCC(C)(C)S(=O)(=O)C1(CN2CCc3c(C(=O)NCc4ccc(Cl)cc4)nn(C)c3C2=O)CC1 (single isomer, unassigned) [Example 97] |  |  |  | pIC50 [1]: 9.00; pIC50 [2, 4]: 7.64
CC(N)COCC(C)(C)S(=O)(=O)C1(CN2CCc3c(C(=O)NCc4ccc(Cl)cc4)nn(C)c3C2=O)CC1 (single isomer, unassigned) [Example 98] |  |  |  | pIC50 ([1]; read-out: CMV-polymerase Biochemical IC50, 100 pM CMV polymerase, 60 minutes at room temperature): 9.00; pIC50 [2, 4]: 7.59
CC(N)COCC(C)(C)S(=O)(=O)C1(CN2CCc3c(C(=O)NCc4ccc(C#N)cc4)nn(C)c3C2=O)CC1 (single isomer, unassigned) [Example 99] |  |  |  | pIC50 [1]: 8.40; pIC50 [2, 4]: 7.20
CC(N)COCC(C)(C)S(=O)(=O)C1(CN2CCc3c(C(=O)NCc4ccc(C#N)cc4)nn(C)c3C2=O)CC1 (single isomer, unassigned) [Example 100, (R)- or (S)-6-((1-((1-(2-Aminopropoxy)-2-methylpropan-2-yl)sulfonyl)cyclopropyl)methyl)-N-(4-cyanobenzyl)-1-methyl-7-oxo-4,5,6,7-tetrahydro-1H-pyrazolo[3,4-c]pyridine-3-carboxamide] | 8.40 | 7.22 |  | pEC50 [3, 7]: 7.89
Cn1nc(C(=O)NCc2ccc(C#N)cc2)c2c1C(=O)N(CC1(S(=O)(=O)N3CCC(C)(O)C3)CC1)CC2 (single isomer, unassigned) [Example 131, (R)- or (S)-N-(4-Cyanobenzyl)-6-((1-((3-hydroxy-3-methylpyrrolidin-1-yl)sulfonyl)cyclopropyl)methyl)-1-methyl-7-oxo-4,5,6,7-tetrahydro-1H-pyrazolo[3,4-c]pyridine-3-carboxamide] |  | 6.79 | 6.65 | 
Cn1nc(C(=O)NCc2ccc(C#N)cc2)c2c1C(=O)N(CC1(S(=O)(=O)C3CCOC3)CC1)CC2 (single isomer, unassigned) [Example 170] | 8.40 | 6.91 |  | 
Cn1nc(C(=O)NCc2ccc(C#N)cc2)c2c1C(=O)N(CC1(S(=O)(=O)C3CCOC3)CC1)CC2 (single isomer, unassigned) [Example 171] | 8.52 | 7.11 | 6.98 | 
COCC(C)(CO)S(=O)(=O)C1(CN2CCc3c(C(=O)NCc4ccc(C#N)cc4)nn(C)c3C2=O)CC1 (single isomer, unassigned) [Example 182, (R)- or (S)—N-(4-Cyanobenzyl)-6-((1-((1-hydroxy-3-methoxy-2-methylpropan-2-yl)sulfonyl)cyclopropyl)methyl)-1-methyl-7-oxo-4,5,6,7-tetrahydro-1H-pyrazolo[3,4-c]pyridine-3-carboxamide] |  |  | 7.30 | 
Cn1nc(C(=O)NCc2ccc(C#N)cc2)c2c1C(=O)N(CC1(S(=O)(=O)C(C)(CN)CO)CC1)CC2 (single isomer, unassigned) [Example 184] | 8.40 | 7.28 |  | 
Cn1nc(C(=O)NCc2ccc(C#N)cc2)c2c1C(=O)N(CC1(S(=O)(=O)C(C)(CN)CO)CC1)CC2 (single isomer, unassigned) [Example 185] | 8.40 | 7.23 | 6.56 | 
Cn1nc(C(=O)NCc2ccc(Cl)cc2)c2c1C(=O)N(CC1(S(=O)(=O)C(C)(CN)CO)CC1)CC2 (single isomer, unassigned) [Example 187] |  | 7.07 | 7.15 | 
Cn1nc(C(=O)NCc2ccc(Cl)cc2)c2c1C(=O)N(CC1(S(=O)(=O)C(C)(CN)CO)CC1)CC2 (single isomer, unassigned) [Example 188] |  | 6.97 | 6.80 | 
Cn1nc(C(=O)NCc2ccc(C#N)cc2)c2c1C(=O)N(CC1(S(=O)(=O)C3(C(O)CO)CC3)CC1)CC2 (single isomer, unassigned) [Example 195, (R)- or (S)—N-(4-Cyanobenzyl)-6-((1-((1-(1,2-dihydroxyethyl)cyclopropyl)sulfonyl)cyclopropyl)methyl)-1-methyl-7-oxo-4,5,6,7-tetrahydro-1H-pyrazolo[3,4-c]pyridine-3-carboxamide] | 9.00 |  | 7.28 | 
Cn1nc(C(=O)NCc2ccc(Cl)cc2)c2c1C(=O)N(CC1(S(=O)(=O)C3(C(O)CO)CC3)CC1)CC2 (single isomer, unassigned) [Example 196] | 9.00 | 7.72 |  | pEC50 [3, 7]: 7.72
Cn1nc(C(=O)NCc2ccc(Cl)cc2)c2c1C(=O)N(CC1(S(=O)(=O)C3(C(O)CO)CC3)CC1)CC2 (single isomer, unassigned) [Example 197] | 9.00 |  | 7.70 | 
Cn1nc(C(=O)NCc2ccc(Cl)cc2)c2c1C(=O)N(CC1(S(=O)(=O)C(C)(C)C(O)CN)CC1)CC2 (single isomer, unassigned) [Example 200] | 9.00 | 7.85 |  | 
CNCC(O)C(C)(C)S(=O)(=O)C1(CN2CCc3c(C(=O)NCc4ccc(C#N)cc4)nn(C)c3C2=O)CC1 (single isomer, unassigned) [Example 202] | 8.70 | 7.52 |  | 
CNCC(O)C(C)(C)S(=O)(=O)C1(CN2CCc3c(C(=O)NCc4ccc(C#N)cc4)nn(C)c3C2=O)CC1 (single isomer, unassigned) [Example 203] | 8.70 | 7.42 | 7.72 | 
CNCC(O)C(C)(C)S(=O)(=O)C1(CN2CCc3c(C(=O)NCc4ccc(Cl)cc4)nn(C)c3C2=O)CC1 (single isomer, unassigned) [Example 204] | 8.52 | 7.43 |  | 
CNCC(O)C(C)(C)S(=O)(=O)C1(CN2CCc3c(C(=O)NCc4ccc(Cl)cc4)nn(C)c3C2=O)CC1 (single isomer, unassigned) [Example 205] | 8.70 | 7.54 | 8.05 | 
CN(C)CC(O)C(C)(C)S(=O)(=O)C1(CN2CCc3c(C(=O)NCc4ccc(Cl)cc4)nn(C)c3C2=O)CC1 (single isomer, unassigned) [Example 206] | 7.68 | 7.13 |  | 
CN(C)CC(O)C(C)(C)S(=O)(=O)C1(CN2CCc3c(C(=O)NCc4ccc(Cl)cc4)nn(C)c3C2=O)CC1 (single isomer, unassigned) [Example 207] | 7.64 | 7.06 | 7.30 | 
Cn1nc(C(=O)NCc2ccc(C#N)cc2)c2c1C(=O)N(CC1(S(=O)(=O)C(C)(C)C(O)C(C)(C)N)CC1)CC2 (single isomer, unassigned) [Example 211, (R)- or (S)-6-((1-((4-Amino-3-hydroxy-2,4-dimethylpentan-2-yl)sulfonyl)cyclopropyl)methyl)-N-(4-cyanobenzyl)-1-methyl-7-oxo-4,5,6,7-tetrahydro-1H-pyrazolo[3,4-c]pyridine-3-carboxamide] |  |  | 7.55 | 
Cn1nc(C(=O)NCc2ccc(C#N)cc2)c2c1C(=O)N(CC1(S(=O)(=O)C(C)(C)C(O)C(C)(C)N)CC1)CC2 (single isomer, unassigned) [Example 212, (R)- or (S)-6-((1-((4-Amino-3-hydroxy-2,4-dimethylpentan-2-yl)sulfonyl)cyclopropyl)methyl)-N-(4-cyanobenzyl)-1-methyl-7-oxo-4,5,6,7-tetrahydro-1H-pyrazolo[3,4-c]pyridine-3-carboxamide] |  |  | 8.15 | 
CC(O)Cn1nc(C(=O)NCc2ccc(C#N)cc2)c2c1C(=O)N(CC1(S(=O)(=O)C3CC3)CC1)CC2 (single isomer, unassigned) [Example 226, (R)- or (S)—N-(4-Cyanobenzyl)-6-((1-(cyclopropylsulfonyl)cyclopropyl)methyl)-1-(2-hydroxypropyl)-7-oxo-4,5,6,7-tetrahydro-1H-pyrazolo[3,4-c]pyridine-3-carboxamide] |  |  | 7.36 | 
N#Cc1ccc(CNC(=O)c2n[nH]c3c2CCN(CC2(S(=O)(=O)C4CC4)CC2)C3=O)cc1 [Example 45, N-(4-Cyanobenzyl)-6-((1-(cyclopropylsulfonyl)cyclopropyl)methyl)-7-oxo-4,5,6,7-tetrahydro-1H-pyrazolo[3,4-c]pyridine-3-carboxamide] | 8.22 | 6.77 |  | pEC50 [3, 7]: 6.84
Cn1nc(C(=O)NCc2ccc(C#N)cc2)c2c1C(=O)N(CC1(S(=O)(=O)C(C)(C)COCCO)CC1)CC2 [Example 87, N-(4-Cyanobenzyl)-6-((1-((1-(2-hydroxyethoxy)-2-methylpropan-2-yl)sulfonyl)cyclopropyl)methyl)-1-methyl-7-oxo-4,5,6,7-tetrahydro-1H-pyrazolo[3,4-c]pyridine-3-carboxamide] | 9.00 | 7.49 |  | pEC50 [3, 7]: 7.36
Cn1nc(C(=O)NCc2ccc(Cl)cc2)c2c1C(=O)N(CC1(S(=O)(=O)C(C)(CN)CO)CC1)CC2 (stereo not drawn) [Example 186] |  | 7.43 |  | pEC50 [3, 9]: 7.05
Cn1nc(C(=O)NCc2ccc(C#N)cc2)c2c1C(=O)N(CC1(S(=O)(=O)C(C)(C)[C@H](O)CO)CC1)CC2 [Example 193, (R)—N-(4-cyanobenzyl)-6-((1-((3,4-dihydroxy-2-methylbutan-2-yl)sulfonyl)cyclopropyl)methyl)-1-methyl-7-oxo-4,5,6,7-tetrahydro-1H-pyrazolo[3,4-c]pyridine-3-carboxamide] |  | 7.96 |  | pEC50 [3, 7]: 7.66
CC(C)[C@@H](NS(=O)(=O)C1(CN2CCc3c(C(=O)NCc4ccc(Cl)cc4)nn(C)c3C2=O)CC1)C(=O)O [Example 215, ((1-((3-((4-Chlorobenzyl)carbamoyl)-1-methyl-7-oxo-1,4,5,7-tetrahydro-6H-pyrazolo[3,4-c]pyridin-6-yl)methyl)cyclopropyl)sulfonyl)-D-valine] | 9.00 | 7.55 |  | pEC50 [3, 9]: 5.72
